Assay results from US12024498B2, “Radical compounds and methods of using thereof” (OHIO STATE INNOVATION FOUNDATION, priority 2017, dated 2024).
Like-named read-outs stand apart in the source and are kept apart here.

Target: 13C,15N-wt-huPrP23-144 fibrils (Homo sapiens, UniProt P04156)
[1] = 12 mM biradical in 6:3:1 d8-glycerol/D2O/H2O, 12 kHz MAS

Chain of 13C,15N-wt-huPrP23-144 fibrils (P04156 23-144 limits assumed): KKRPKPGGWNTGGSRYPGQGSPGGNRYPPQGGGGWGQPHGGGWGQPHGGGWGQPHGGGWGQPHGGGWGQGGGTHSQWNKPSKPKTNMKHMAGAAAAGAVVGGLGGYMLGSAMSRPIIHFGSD

## TOAC-TOAC-Ser [TTS]
12 mM biradical in 6:3:1 d8-glycerol/D2O/H2O
  Optimal recycle delay: 1.52 s
[1]
  1H T1: 1.29 s
  εDNP: 18-25
  τDNP: 1.21 s
12 mM biradical, huPrP23-144 fibril samples
  τDNP: 2 s
